The target of one assay is T1, 5-LOX (Homo sapiens, UniProt P09917).
T1 construct: made in house
T1 sequence (P09917 1-674): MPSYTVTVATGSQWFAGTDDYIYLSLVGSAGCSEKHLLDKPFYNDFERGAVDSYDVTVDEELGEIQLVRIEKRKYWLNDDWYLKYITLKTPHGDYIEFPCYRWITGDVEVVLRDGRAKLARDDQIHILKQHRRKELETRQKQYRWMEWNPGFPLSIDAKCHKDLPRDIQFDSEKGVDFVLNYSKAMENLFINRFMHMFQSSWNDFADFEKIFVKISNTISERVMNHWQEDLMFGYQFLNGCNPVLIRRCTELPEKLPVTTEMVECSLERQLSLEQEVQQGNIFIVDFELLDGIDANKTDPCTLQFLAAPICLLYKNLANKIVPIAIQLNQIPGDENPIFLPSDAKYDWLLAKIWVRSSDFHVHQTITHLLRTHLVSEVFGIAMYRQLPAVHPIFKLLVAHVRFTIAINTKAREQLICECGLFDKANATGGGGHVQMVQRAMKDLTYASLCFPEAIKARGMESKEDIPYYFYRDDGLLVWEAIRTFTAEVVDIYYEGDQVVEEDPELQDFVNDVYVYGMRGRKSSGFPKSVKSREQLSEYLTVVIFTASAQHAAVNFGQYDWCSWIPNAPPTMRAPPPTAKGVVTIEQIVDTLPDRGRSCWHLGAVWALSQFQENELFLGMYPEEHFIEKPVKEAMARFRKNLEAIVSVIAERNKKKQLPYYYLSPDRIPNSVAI
The assay is described as follows: Lipoxygenase UV-Vis assay, 5-LOX crude extract. In kind it is biochemical. To be noted: estimated from one inhibitor point at 20 µM; 10 µM AA. On the procedure: Human leukocyte 5-lipoxygenase (5-LOX) was expressed as a non-tagged protein and used as a crude ammonium sulfate protein fraction, as published previously, [20].
The reactions were initiated by adding 200 nM 15-LOX-2, 30 nM 12-LOX, 40 nM 15-LOX-1, or approximately 100–300 nM (5–10 µL) of 5-LOX crude extract to a cuvette with 2 mL reaction buffer, constantly stirred using a magnetic stir bar at room temperature (22°C). Reaction buffers used for various LOX isozymes were as follows: 25 mM HEPES (pH 7.3), 0.3 mM CaCl2, 0.1 mM EDTA, 0.2 mM ATP, 0.01% Triton X-100, 10 µM AA for the crude, ammonium sulfate precipitated 5-LOX; and 25 mM HEPES (pH 7.5), 0.01% Triton X-100, 10 µM AA for 15-LOX-2, 15-LOX-1, and 12-LOX. The substrate concentration was quantitatively determined by allowing the enzymatic reaction to go to completion in the presence of 15-LOX-2. […] The data were then plotted against inhibitor concentration, followed by a hyperbolic saturation curve fit (assuming total enzyme concentration [E]≪IC50). […] All inhibitors were stored at −20°C in DMSO. NDGA was utilized as positive control for the selectivity assays for the various LOX isozymes.

In the next assay the target is T2, ovine COX-1 (Ovis aries, UniProt P05979).
T2 construct: purchased Cayman Chemical
T2 sequence (P05979 25-600): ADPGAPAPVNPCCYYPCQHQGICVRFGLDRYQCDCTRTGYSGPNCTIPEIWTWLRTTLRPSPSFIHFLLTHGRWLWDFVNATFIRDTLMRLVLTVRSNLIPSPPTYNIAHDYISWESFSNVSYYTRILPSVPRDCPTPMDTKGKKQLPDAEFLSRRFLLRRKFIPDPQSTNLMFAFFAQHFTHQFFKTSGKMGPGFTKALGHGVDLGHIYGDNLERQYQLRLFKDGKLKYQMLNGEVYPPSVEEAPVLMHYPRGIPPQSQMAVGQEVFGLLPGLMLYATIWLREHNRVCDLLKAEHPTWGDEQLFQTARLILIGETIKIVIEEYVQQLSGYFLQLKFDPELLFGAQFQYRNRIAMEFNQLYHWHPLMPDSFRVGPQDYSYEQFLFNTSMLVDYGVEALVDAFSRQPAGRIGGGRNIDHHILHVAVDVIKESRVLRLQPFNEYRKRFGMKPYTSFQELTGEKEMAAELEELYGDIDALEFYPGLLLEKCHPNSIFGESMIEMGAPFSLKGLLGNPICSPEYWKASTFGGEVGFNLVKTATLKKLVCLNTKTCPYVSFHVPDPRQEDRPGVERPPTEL
The assay is described as follows: Cyclooxygenase assay (oxygen electrode), COX-1. In kind it is biochemical. As to conditions: estimated from one inhibitor point at 20 µM; 100 µM AA. The procedure:
Cyclooxygenase activity assay was performed as previously described. Approximately 3 µg of either ovine COX-1 (COX-1) or human recombinant COX-2 (COX-2) (Cayman Chemical) were added to buffer containing 0.1 M Tris-HCl buffer (pH 8.0), 5 mM EDTA, 2 mM phenol and 1 µM hematin at 37°C. The selected inhibitors were added to the reaction cell, followed by an incubation of 5 minutes with either of the COX enzymes. The reaction was then initiated by adding 100 µM AA in the reaction cell, as indicated in enzymatic protocol (Cayman Chemicals). Data were collected using a Hansatech DW1 oxygen electrode and the consumption of oxygen was recorded. Indomethacin and the solvent (DMSO), were used as positive and negative controls, respectively, and the percent inhibition of the enzyme was calculated by comparing the rates of the samples to the controls.

For `Clc1ccc(-c2nnc(C3CCCCC3)o2)cc1` [MLS000545091], the IC50 on 5-LOX and on ovine COX-1 was over 50 µM in each case.
With `Cc1ccc(CSc2ncn(-c3ccccc3)n2)cc1` [MLS000536924], the 50% inhibitory concentration (IC50) at 5-LOX and at ovine COX-1 was over 100 µM each time.

The record behind these values is paper PMC4128814, “A High Throughput Screen Identifies Potent and Selective Inhibitors to Human Epithelial 15-Lipoxygenase-2” (PLoS ONE, 2014).
